Experimental data as given in US20070059720A9 (priority 2004, published 2007).
Where two headings read alike, the source gives them in different places.

Experiments:
breast cancer = settings: cited from earlier work
ERK 1,2 MAPK = test: Immunoblot of phospho-MAPK in MCF-7 transfectants; format: cell-based, human
Protocol: (§1) Cells grown in 100 mm dishes were starved in phenol red-free (PRF), serum-free MEM (Specialty Media, Phillipsburg, N.J.) for 48 hours, and were then treated for 2 hours with vehicle (ethanol), estrogen (100 nM, 20), or OHT (100 nM). After treatment, cells were rinsed twice with ice-cold phosphate-buffered saline (PBS) and were then lysed immediately with 200 μl of cell lysis buffer (20 mM Tris HCl, pH 7.4, 150 mM NaCl, 1 mM B-glycerophosphate, 1 mM sodium orthovanadate, and 10% glycerol plus 1:100 proteinase inhibitor cocktail III) (Calbiochem, LaJolla, Calif.) per 100 mm tissue culture. The cell lysates were cleared by centrifugation at 16,100×g for 10 minutes at 4° C. Protein concentration was determined with the BCA Protein Assay kit (Pierce, Rockfold, Ill.) according to the manufacturer's directions. Equal amount of cell extracts were resolved under denaturing conditions by electrophoresis in 8-10% polyacrylamide gels containing sodium dodecyl sulfate (SDS-PAGE), and transferred to nitrocellulose membranes by electroblotting (Schleicher & Schuell, Keene, NH). After blocking of the transferred nitrocellulose membrane with TBST (20 mM Tris pH 7.6, 150 mM NaCl, 0.1% Tween-20) supplemented with 5% non-fat milk for 1 hour at room temperature, the membrane was incubated with primary antibodies either for 1 hour at room temperature (anti-ERα, 1:100 dilution; anti-AIB1, 1:100 dilution; anti-ERK2, 1:500 dilution; anti-Cyclin D1,1:500 dilution; anti-PR, C-19, 1:200 dilution; anti-p190, 1:1000 dilution; anti-V5, 1:5000 dilution), or overnight at 4° C. (anti-phospho MAPK, 1:1000 dilution; anti-phosphor-Ser118-ERα; 1:1000 dilution; MAPK p42/44, 1:1000 dilution), incubated with secondary antibodies for 1 hour at room temperature and then developed with Enhanced Chemiluminescence Reagents (Amersham Pharmacia Biotech, Piscataway, N.J.).
MAPK activity is tightly regulated by phosphorylation and dephosphorylation. MKP3 participates in a bidirectional regulatory loop with ERK2 MAPK, whereby ERK2 substrate binding is associated with catalytic activation of MKP3, and activated MKP3 negatively regulates pERK2 (Camps et al., 1998). […] Immunoblot analysis with anti-V5 was used to detect ectopic MKP3 expression in the two MKP3 transfectants (FIG. 5A, top panel). FIGS. 5B and 5C provide quantitation of results in FIG. 5A.

MCF-7-MKP3 cells = test: Anchorage-independent soft agar colony formation, MKP3-overexpressing MCF-7 transfectants; format: cell-based, human; settings: MKP3-transfected cells; 100 nM OHT plus 10 nM ICI or 20 nM
Protocol: MCF-7 cells were originally obtained from Dr. Benita Katzenellebogen, but have been maintained in the inventors' laboratory for over 10 years (Fuqua et al., 2000). MCF-7 cells were maintained in Minimal Essential Medium (MEM, InVitrogen) supplemented with 5% fetal bovine serum (Summit Biotechnology, Fort Collins, Colo.), 200 U/ml penicillin, and 200 μg/ml streptomycin. Cells were incubated at 37° C. in 5% CO2. To generate MCF-7 cells stably overexpressing MKP3, 5 μg of the plasmid pcDNA3-MKP3-V5 (Furukawa et al., 2003) or empty vector (pcDNA3-His-V5, InVitrogen), were transfected into the cells using Fugene 6 reagent Roche Clinical Laboratories, Indianapolis, Ind.) in 100 mm tissue culture dishes following the manufacturer's protocol. Stable clones overexpressing MKP3 were selected as described (Fuqua et al., 2000), and positive clones were identified using immunoblot analysis with an anti-V5 antibody (1:5000 dilution)
(§2) Cells were starved for 2 days in PRF MEM (InVitrogen) supplemented with 5% fetal bovine serum (FBS, Summit Biotechnology, Fort Collins, Colo.), 6 ng/ml insulin, 200 units/ml penicillin, and 200 μg/ml streptomycin. Soft agar assays were performed in sixwell plates. Into each well, 1.5 ml of prewarmed (50° C.) 0.7% SeaPlaque agarose (FMC, Rockland, Me.) was added and dissolved in PRF MEM supplemented with 5% charcoal stripped FBS (Summit, Fort Collins, Colo.) to serve as the bottom layer, and allowed to solidify at 4° C. until to use. 0.5×10^4 cells as a single cell suspension were suspended in prewarmed (37° C.) of the same media, 4 ml of 0.5% SeaPlaque agarose was then added, and this suspension then plated as the top layer by adding it dropwise to the solidified bottom layer plates. Plates were cooled for 2 hours, and then transferred to a 37° C. humidified incubator. Two days after plating, media containing control vehicle, 1 nM estradiol, 100 nM 4-OH-Tam, 100 nM OHT plus 10 nM ICI, or 100 nM OHT plus 20 nM […] was added to the top cell layer, and the appropriate media was replaced every two days. After 14 days, the colonies were fixed, and the colony number of colonies >50 cells from quadruplicate assays were then counted. The data shown is the mean colony number of four plates, and is representative of two independent experiments.
(§3) In pancreatic cells, ectopic expression of MKP3 is reported to result in a suppression of cell growth (Fuqua et al., 2003). Thus, the growth characteristics of the MCF-7 stable MKP3 transfectants under different hormonal conditions were investigated using anchorageindependent soft agar assay (FIG. 4B).

[1] = system: progesterone receptor (PR) A and B forms; test: Immunoblot of PR-A and PR-B in MCF-7 transfectants; format: cell-based, human; settings: MKP3 overexpressing cells
Protocol: as §1
(§4) As expected with two hours of estrogen treatment, no induction of the two PR isoforms were detected in either the control vector (Con 1 and 2), or in the MKP3-transfected cells (FIG. 11A). […]

cyclin D1 (CCND1) = test: Immunoblot of CCND1 in MCF-7 transfectants; format: cell-based, human; settings: MKP3 overexpressing cells
Protocol: (§5) Cells grown in 100 mm dishes were starved in phenol red-free (PRF), serum-free MEM (Specialty Media, Phillipsburg, N.J.) for 48 hours, and were then treated for 2 hours with vehicle (ethanol), estrogen (100 nM, 20), or OHT (100 nM). After treatment, cells were rinsed twice with ice-cold phosphate-buffered saline (PBS) and were then lysed immediately with 200 μl of cell lysis buffer (20 mM Tris HCl, pH 7.4, 150 mM NaCl, 1 mM B-glycerophosphate, 1 mM sodium orthovanadate, and 10% glycerol plus 1:100 proteinase inhibitor cocktail III) (Calbiochem, LaJolla, Calif.) per 100 mm tissue culture. The cell lysates were cleared by centrifugation at 16,100×g for 10 minutes at 4° C. Protein concentration was determined with the BCA Protein Assay kit (Pierce, Rockfold, Ill.) according to the manufacturer's directions. Equal amount of cell extracts were resolved under denaturing conditions by electrophoresis in 8-10% polyacrylamide gels containing sodium dodecyl sulfate (SDS-PAGE), and transferred to nitrocellulose membranes by electroblotting (Schleicher & Schuell, Keene, NH). […]
as §4

[2] = system: MCF-7 vector control cells; test: Anchorage-independent soft agar colony formation, MCF-7 vector control cells; format: cell-based, human; settings: vector control cells; 100 nM OHT plus 10 nM ICI or 20 nM PD98065
Protocol: as §2, §3

ERα = test: Immunoblot of phospho-S118 ERα and total ERα in MCF-7 transfectants; format: cell-based, human; settings: control and Tam-treated MKP3.2 cells
Protocol: as §1

JNK = test: Immunoblot of phospho-JNK in MCF-7 transfectants; format: cell-based, human; settings: vector control cells treated with the inhibitor
Protocol: as §5

TR breast cancer = settings: second-line therapy; cited from earlier work

| SMILES | benefit compared to tamoxifen (breast cancer; ER+/PR+ group) | benefit compared to tamoxifen (breast cancer; ER+/PR− subgroup) | effect on the increase in pMAPK (ERK 1,2 MAPK; control and Tam-treated MKP3.2 cells) | effect on activation of MAPK (ERK 1,2 MAPK; vector control cells, all treatment conditions) | effect on Tam-induced colony formation (MCF-7-MKP3 cells) | effect on PR-B levels in Tam-treated cells [1] | effect on tamoxifen induction of CCND1 (cyclin D1 (CCND1)) | effect on Tam-induced colony formation [2] | effect on the increase in pS118 ERα (ERα) | pJNK level (JNK) | share of TR breast cancer patients who respond (TR breast cancer) |
| --- | --- | --- | --- | --- | --- | --- | --- | --- | --- | --- | --- |
| CC(C)(C#N)c1cc(Cn2cncn2)cc(C(C)(C)C#N)c1 [anastrazole] | modest advantage | major benefit | – | – | – | – | – | – | – | – | – |
| COc1cccc(-c2cc(=O)c3ccccc3o2)c1N [PD98059] | – | – | effectively inhibited | blocked activation of MAPK | completely blocked | restored | blocked | completely blocked | effectively inhibited | elevated | – |
| C[C@]12CC[C@@H]3c4ccc(O)cc4C[C@@H](CCCCCCCCC[S+]([O-])CCCC(F)(F)C(F)(F)F)[C@H]3[C@@H]1CC[C@@H]2O (stereo partly shown) [ICI182,780] | – | – | – | – | completely blocked | – | – | completely blocked | – | – | About two-thirds |
